± gives the expanded uncertainty stated by the source.
Experiments:
[1] = molar heat capacity at saturation pressure; settings: Vacuum adiabatic calorimetry
[2] = for vapor or sublimation pressure: Inclined piston gauge
[3] = molar heat capacity at constant pressure; settings: 101.33 kPa, Vacuum adiabatic calorimetry
[4] = Molar enthalpy of transition or fusion; settings: Crystal; Adiabatic calorimetry

c1ccc2nc3ccccc3nc2c1 [phenazine]
Settings | Triple point temperature [K] | molar heat capacity [J/K/mol] | molar heat capacity at constant pressure [J/K/mol] | vapor or sublimation pressure [kPa]
[1], 404.56 K, Crystal | – | 273.47 ± 0.47 | – | –
[1], 413.04 K, Crystal | – | 278.97 ± 0.48 | – | –
[1], 415.93 K, Crystal | – | 280.86 ± 0.48 | – | –
[1], 426.29 K, Crystal | – | 287.62 ± 0.49 | – | –
[1], 428.38 K, Crystal | – | 288.92 ± 0.49 | – | –
[1], 438.38 K, Crystal | – | 296.29 ± 0.5 | – | –
[1], 439.14 K, Crystal | – | 296.66 ± 0.5 | – | –
[1], 453.29 K, Liquid | – | 334.17 ± 0.53 | – | –
[1], 455.84 K, Liquid | – | 335.26 ± 0.53 | – | –
[1], 456.63 K, Liquid | – | 335.61 ± 0.53 | – | –
[1], 460.6 K, Liquid | – | 337.14 ± 0.54 | – | –
[1], 461.49 K, Liquid | – | 337.63 ± 0.54 | – | –
[1], 475.45 K, Liquid | – | 343.31 ± 0.54 | – | –
[1], 490.19 K, Liquid | – | 349.18 ± 0.55 | – | –
[1], 504.28 K, Liquid | – | 354.75 ± 0.56 | – | –
[1], 510.36 K, Liquid | – | 357.26 ± 0.56 | – | –
[1], 516.76 K, Liquid | – | 359.48 ± 0.56 | – | –
[2], 389.95 K, Crystal | – | – | – | 0.0331 ± 0.001
[2], 400.01 K, Crystal | – | – | – | 0.0682 ± 0.0011
[2], 410 K, Crystal | – | – | – | 0.1346 ± 0.0012
[2], 420 K, Crystal | – | – | – | 0.2572 ± 0.0013
[2], 430 K, Crystal | – | – | – | 0.476 ± 0.0015
[2], 449.96 K, Liquid | – | – | – | 1.444 ± 0.0027
[2], 454.97 K, Liquid | – | – | – | 1.754 ± 0.0031
[2], 460.06 K, Liquid | – | – | – | 2.127 ± 0.0035
[2], 464.96 K, Liquid | – | – | – | 2.548 ± 0.004
[2], 469.96 K, Liquid | – | – | – | 3.05 ± 0.0045
[2], 471.96 K, Liquid | – | – | – | 3.273 ± 0.0048
[2], Crystal, Adiabatic calorimetry | 447.91 ± 0.05 | – | – | –
[3], 5 K, Crystal | – | – | 0.38 ± 0.02 | –
[3], 10 K, Crystal | – | – | 2.76 ± 0.03 | –
[3], 20 K, Crystal | – | – | 13.34 ± 0.091 | –
[3], 30 K, Crystal | – | – | 25.08 ± 0.091 | –
[3], 40 K, Crystal | – | – | 35.19 ± 0.11 | –
[3], 50 K, Crystal | – | – | 43.5 ± 0.12 | –
[3], 60 K, Crystal | – | – | 50.49 ± 0.14 | –
[3], 70 K, Crystal | – | – | 56.66 ± 0.16 | –
[3], 80 K, Crystal | – | – | 62.3 ± 0.17 | –
[3], 90 K, Crystal | – | – | 67.8 ± 0.27 | –
[3], 100 K, Crystal | – | – | 73.23 ± 0.27 | –
[3], 120 K, Crystal | – | – | 84.23 ± 0.28 | –
[3], 140 K, Crystal | – | – | 95.77 ± 0.3 | –
[3], 160 K, Crystal | – | – | 107.87 ± 0.31 | –
[3], 180 K, Crystal | – | – | 120.51 ± 0.32 | –
[3], 200 K, Crystal | – | – | 133.66 ± 0.33 | –
[3], 220 K, Crystal | – | – | 147.13 ± 0.35 | –
[3], 240 K, Crystal | – | – | 160.98 ± 0.36 | –
[3], 260 K, Crystal | – | – | 175.01 ± 0.37 | –
[3], 280 K, Crystal | – | – | 188.99 ± 0.39 | –
[3], 298.15 K, Crystal | – | – | 201.63 ± 0.4 | –
[3], 300 K, Crystal | – | – | 202.93 ± 0.4 | –
[3], 320 K, Crystal | – | – | 216.89 ± 0.42 | –
[3], 340 K, Crystal | – | – | 230.56 ± 0.43 | –
[3], 360 K, Crystal | – | – | 244.06 ± 0.44 | –
[3], 380 K, Crystal | – | – | 257.36 ± 0.46 | –
[3], 400 K, Crystal | – | – | 270.46 ± 0.47 | –
[3], 420 K, Crystal | – | – | 283.41 ± 0.48 | –
[3], 440 K, Crystal | – | – | 296.01 ± 0.5 | –
[3], 447.91 K, Crystal | – | – | 300.87 ± 0.5 | –
[3], 447.91 K, Liquid | – | – | 331.96 ± 0.53 | –
[3], 460 K, Liquid | – | – | 337 ± 0.54 | –
[3], 480 K, Liquid | – | – | 345.14 ± 0.55 | –
[3], 500 K, Liquid | – | – | 353.07 ± 0.56 | –
[3], 520 K, Liquid | – | – | 360.67 ± 0.56 | –

Settings | Molar enthalpy of transition or fusion [kJ/mol]
[4] | 24.92 ± 0.026

From the NIST ThermoML archive (doi:10.1016/j.jct.2009.11.010)
